These results are taken from ChEMBL document CHEMBL1138384, “Rational design of a nonpeptide general chemical scaffold for reversible inhibition of PDZ domain interactions” (Bioorg Med Chem Lett, 2007).

For data set [1], the species on record is Homo sapiens. In words: Inhibition of MAGI3-PTEN interaction at 10 uM.
The species named for data set [2] is Homo sapiens. In words: Inhibition of MAGI3-PTEN interaction assessed as activation of PKB at 5 uM.
Data set [3] concerns the target Cystic fibrosis transmembrane conductance regulator (Homo sapiens) (UniProt P13569). In words: Inhibition of […]-mediated chloride transport in human bronchial epithelial cells by voltage clamp method. It counts as cell-based. The conditions noted are these: Epithelial cell.
A further data set relates to HEK293. In words: Inhibition of receptor recycling in HEK293 cells assessed as reduction of adrenergic beta-2 receptor expression. The format is functional, cell-based. Conditions: Homo sapiens.
Another data set deals with HCT-116. In words: Effect on HCT116 cells expressing wild-type PTEN assessed as 2-fold increase in PKB activity at 50 uM. The format is functional, cell-based. The conditions noted are these: Homo sapiens.
A short description of data set [4]: Solubility in water. It counts as physicochemical.
The species named for data set [5] is Homo sapiens. In words: Displacement of peptide probe from MAGI3 PDZ2 domain by fluorescent polarization method.

Active and inactive are the calls of the source. No cut-off for these calls is given here.

Sequence of Cystic fibrosis transmembrane conductance regulator (Homo sapiens) (P13569 whole entry, looked up): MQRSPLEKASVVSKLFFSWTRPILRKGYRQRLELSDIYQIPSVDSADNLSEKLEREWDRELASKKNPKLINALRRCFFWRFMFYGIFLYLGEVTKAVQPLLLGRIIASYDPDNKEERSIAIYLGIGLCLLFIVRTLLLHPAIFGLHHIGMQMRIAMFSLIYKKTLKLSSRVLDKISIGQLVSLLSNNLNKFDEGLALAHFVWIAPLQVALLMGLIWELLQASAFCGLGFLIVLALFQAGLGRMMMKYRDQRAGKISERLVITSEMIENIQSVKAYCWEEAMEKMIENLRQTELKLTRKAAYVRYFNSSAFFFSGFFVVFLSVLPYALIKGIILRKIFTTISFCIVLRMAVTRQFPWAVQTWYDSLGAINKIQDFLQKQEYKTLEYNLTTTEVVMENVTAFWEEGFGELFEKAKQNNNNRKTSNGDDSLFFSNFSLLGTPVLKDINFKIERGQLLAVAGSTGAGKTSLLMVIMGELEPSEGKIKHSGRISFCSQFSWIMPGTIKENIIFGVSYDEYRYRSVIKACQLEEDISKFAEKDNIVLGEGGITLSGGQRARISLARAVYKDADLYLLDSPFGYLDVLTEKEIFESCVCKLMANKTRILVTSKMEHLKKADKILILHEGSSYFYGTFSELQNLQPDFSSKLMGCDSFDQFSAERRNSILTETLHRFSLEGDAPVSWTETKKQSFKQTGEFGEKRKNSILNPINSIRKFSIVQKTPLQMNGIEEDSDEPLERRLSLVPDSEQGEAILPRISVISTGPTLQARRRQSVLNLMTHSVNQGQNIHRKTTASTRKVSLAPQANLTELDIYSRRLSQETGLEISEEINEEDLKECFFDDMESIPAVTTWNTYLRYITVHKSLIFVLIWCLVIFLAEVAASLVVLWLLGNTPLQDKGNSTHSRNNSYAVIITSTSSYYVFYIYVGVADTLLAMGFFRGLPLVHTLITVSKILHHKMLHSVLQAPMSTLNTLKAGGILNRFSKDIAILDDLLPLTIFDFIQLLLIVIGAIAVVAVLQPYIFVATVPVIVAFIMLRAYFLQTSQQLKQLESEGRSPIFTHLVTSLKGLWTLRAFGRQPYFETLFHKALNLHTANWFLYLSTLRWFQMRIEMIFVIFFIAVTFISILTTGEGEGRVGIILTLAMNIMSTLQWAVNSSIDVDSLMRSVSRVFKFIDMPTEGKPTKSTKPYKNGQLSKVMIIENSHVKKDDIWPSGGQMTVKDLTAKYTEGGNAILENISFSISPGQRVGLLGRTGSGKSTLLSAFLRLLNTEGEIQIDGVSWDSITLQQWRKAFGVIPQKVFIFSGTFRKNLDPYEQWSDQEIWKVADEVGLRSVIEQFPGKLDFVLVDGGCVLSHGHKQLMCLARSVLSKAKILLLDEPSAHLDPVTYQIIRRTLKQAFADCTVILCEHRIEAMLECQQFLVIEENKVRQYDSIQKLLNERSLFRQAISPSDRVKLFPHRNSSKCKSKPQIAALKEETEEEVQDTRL

Turning to `CCCCCc1c(CO)c2cc(C)c(C(=O)O)cc2n1CCc1ccccc1`, the inhibition (usually the percentage by which the read-out fell short of the control) in the data set filed under Homo sapiens [1] was 50%. In addition, the result in the data set filed under Homo sapiens [2] was Active.
For `CCCCC(O)c1cc2cc(C)c(C(=O)[O-])cc2n1CCc1ccccc1.[Na+]` (configuration not stated), the Activity result (in data set [3]; in the data set with HEK293) was “Dose-dependent effect” in each case. The result in the data set with HCT-116 and in the data set filed under Homo sapiens [5] was Active. Moreover, the solubility (in general, the dissolved amount per volume that the medium holds) in data set [4] is more than 30 mM.
